Results as given in paper PMC11546719, “Immune Modulatory Profile of the Pateamines PatA and Des-Methyl Des-Amino PatA” (International Journal of Molecular Sciences, 2024).

Key:
[1] = test system: Human primary T cells; test: T cell activation with anti-CD3/anti-CD28; assay type: cell-based; conditions: for Number of activated cells (CD3+CD25+CD69+ cells) / Proliferation rate (CTV) / Surface marker expression (CD69, CD154, CD134, CD25, CD18, CD49a, CD54) / Apoptosis (zombie staining) / Cytokine release (IL-17A, IL-10, IFN-γ): activated T cells, 5 days; for Apoptosis (zombie staining): 0.25-0.5 nM; for Cytokine release (IL-17A, IL-10, IFN-γ): CBA; for Effect on the release of inflammatory markers, T Cells: summary table
Experimental: T cells were activated as previously described. Briefly, 1.75 × 10^5 T cells (stained with 0.2 µM CellTrace^TM violet (CTV) (ThermoFisher Scientific, Schwerte, Germany)) per well were pretreated with PatA (0.25, 0.5 nM), DMDA (0.25, 0.5 nM) or vehicle (DMSO) for 30 min in RPMI 1640 medium supplemented with 2 mM glutamine, 50 Units/mL IL-2, 1% penicillin/streptomycin and 10% FCS. Afterwards, they were seeded in CD3-coated 96-well plates and stimulated with 2 µg/mL CD28 for 5 days. CTV staining was performed according to the protocol of supplier.
(§1) Surface marker analysis was performed as described previously. Briefly, 1.5–2 × 10^5 cells of each sample were blocked with human FcR Blocking Reagent (15 min, 4 °C). A Zombie Aqua™ Fixable Viability Kit (1:500 dilution, BioLegend, San Diego, CA, USA) was used according to the manufactory protocol to discriminate living and dead cells. Afterwards, samples were stained with a mixture of different surface marker antibodies (15 min, 4 °C) and measured with MACSQuant® Analyzer 10 flow cytometer. For M1-/M2-MdMs anti-CD86, anti-CD14, anti-HLA-DR, anti-CD206, anti-CD80, anti-TREM2 and anti-CD163 were used. For T cells, anti-CD69, anti-CD54, anti-CD49a, anti-CD18, anti-CD134, anti-CD154, anti-CD3 and anti-CD25 were analyzed. For B cells, anti-CD27, anti-CD19 and anti-CD38 were applied. For T cell and B cell proliferation assay, freshly isolated T and B cells were stained with CTV and detected using flow cytometry. Naïve B cells were characterized as CD19^+CD27^lowCD38^med, memory B cells as CD19^+CD27^med CD38^low and plasma cells as CD27^+CD38^+ cells. M1 MdMs and M2 MdMs cell population was gated using FSC/SSC channel. T cells were gated as CD3^+CD25^+ positive cells. The geometric mean of the fluorescent intensity was calculated using FlowJo software v10 (Treestar, Ashland, […], USA). Fold induction of surface marker expression was calculated using the DMSO-treated cells as the control.
(§2) For determination of cytokine concentrations in the supernatant of humane immune cells, cytometric bead array (BD Biosciences, Heidelberg, Germany) for IL-10, IL-17, IL-8, IL-6, IFN-γ and CCL2 was used. For the detection of CCL18, CCL17, IgG, IgA and PGE2, an ELISA was performed. The cytometric bead arrays and the ELISAs were performed according to the protocol of the supplier.

[2] = test system: Human primary B cells; test: B cell activation with IL-21, sCD40L, CpG and anti-IgM; assay type: cell-based; conditions: for Cell viability (zombie staining) / B cell activation (formation of plasma cells, proliferation, release of IgGs): activated B cells, 5 days; for Effect on the release of inflammatory markers, B Cells: summary table
Experimental: B cells were activated as described by Khoenkhoen et al.. […].
as §1, with “[…].” for “A Zombie Aqua™ Fixable Viability Kit (1:500 dilution, BioLegend, San Diego, CA, USA) was used according to the manufactory protocol to discriminate living and dead cells.”
as §2

[3] = test system: TK6 cells; test: Micronuclei assay; assay type: cell-based, human; conditions: 4 h incubation then 44 h
Experimental: The In-Vitro Micronuclei Plus assay (Becton Dickinson, Heidelberg, Germany) was performed as described by the supplier. Briefly, 2 × 10^4 TK6 cells were incubated with increasing concentrations of PatA, DMDA and silvestrol for 4 h. The cells were washed with PBS and incubated in fresh medium (without test substance) for 44 h. The cells were centrifuged (300× g) for 5 min, the […] and placed on ice for 20 min. Then, 50 µL of Complete Nucleic Acid Dye A Solution was added. The plate was placed on ice and exposed to visible light for 30 min. The Nucleic Acid Dye A solution was removed and the cells were washed with 0.15 mL of cold 1x Buffer Solution. An amount of 100 µL Complete Lysis Solution 1 was added, followed by gently mixing of the plate for 5 s and incubation of 1 h in the dark at 37 °C. Then, 100 µL Complete Lysis Solution 2 was added and incubated for 30 min in the dark at room temperature. The cells were analyzed via flow cytometry with the MACSQuant 10 (Miltenyi GmbH, Bergisch Gladbach, Germany).

[4] = test system: Caco-2 cell barrier; test: Transport assay, Caco-2 cell barrier; assay type: in vitro ADME; conditions: for Permeability / transport rate across Caco-2 cell barrier (in words): 4 and 24 h, PatA, DMDA 5, 50, 100 nM, controls 200 µM
Experimental: (§3) The transport assay was achieved as described previously. Briefly, 1 × 10^5 CaCo-2 or 5 × 10^4 Calu-3 cells in 300 µL medium were seeded on 24-well ThinCerts (pre-coated with FCS for 60 min) and in the lower compartment, 1 mL culture medium per well was added. The Caco-2 cell barrier was generated over 20 days and the Calu-3 barrier was generated over 14 days. DMDA (0 nM, 5 nM, 50 nM, 100 nM), PatA (0 nM, 5 nM, 50 nM, 100 nM), 200 µM famotidine, 200 µM lucifer yellow or 200 µM carbamazepine diluted in medium was added to the apical compartment and incubated for 4 h or 24 h. The medium from the basolateral and apical compartment was collected and stored at −20 °C and analyzed using LC-MS/MS. To obtain the transport rate, the drug amount in the basolateral compartment at 4 h or 24 h was related to the drug amount in the apical compartment (0 h).
(§4) The detailed method for the analysis of DMDA, PatA, carbamazepine and famotidine using LC-MS/MS is described in the Supplementary Materials.

[5] = test system: Calu-3 cell barrier; test: Transport assay, Calu-3 cell barrier; assay type: in vitro ADME; conditions: for Permeability / transport rate across Calu-3 cell barrier (in words): 4 and 24 h, PatA, DMDA 5, 50, 100 nM, controls 200 µM
Experimental: as §3, §4

Row | Structure (SMILES) | Number of activated cells (CD3+CD25+CD69+ cells) [1] | Proliferation rate (CTV) [1] | Surface marker expression (CD69, CD154, CD134, CD25, CD18, CD49a, CD54) [1] | Apoptosis (zombie staining) [1] | Cytokine release (IL-17A, IL-10, IFN-γ) [1] | Effect on the release of inflammatory markers, T Cells [1] | Cell viability (zombie staining) [2] | B cell activation (formation of plasma cells, proliferation, release of IgGs) ([2]; 0.5 nM) | Effect on the release of inflammatory markers, B Cells [2] | Genotoxic potential: micronuclei (clastogenic) and hypodiploid cells (aneugenic) ([3]; 10 nM) | Permeability / transport rate across Caco-2 cell barrier (in words) [4] | Permeability / transport rate across Calu-3 cell barrier (in words) [5] | B cell activation (formation of plasma cells, proliferation, release of IgGs) [2] | Genotoxic potential: micronuclei (clastogenic) and hypodiploid cells (aneugenic) [3] | Transport rate with Caco-2 cell barrier ([4]; 100 nM, 24 h) | Transport rate with Calu-3 cell barrier ([5]; 100 nM, 24 h) [%]
1 | CC(/C=C/C(C)=C/[C@@H]1Cc2nc(cs2)[C@@H](C)C[C@@H](N)CC(=O)O[C@@H](C)C/C(C)=C/C=C\C(=O)O1)=C\CN(C)C [PatA, pateamine A] | did not influence the number of activated cells | Neither had any effects | Neither had any effects | showed no apoptotic effects | Neither had any effects | No effect | did not reduce cell viability | showed similar effects to those of rapamycin | IgA↓, IgG↓ | induced clastogenic effects | no permeability was detected | no permeability was detected | – | – | – | –
2 | CC(/C=C/C(C)=C/[C@@H]1Cc2nc(cs2)CCCCC(=O)O[C@@H](C)C/C(C)=C/C=C\C(=O)O1)=C\CN(C)C [DMDA, des-methyl des-amino pateamine A] | did not influence the number of activated cells | Neither had any effects | Neither had any effects | showed no apoptotic effects | Neither had any effects | No effect | did not reduce cell viability | – | No effect | – | exhibited low permeability | exhibited low permeability | did not prevent B cell activation | induced neither clastogenic nor aneugenic effects | about 6% | ~14
